Results taken from patent US11185539B2 (priority 2017, dated 2021).

How the values were obtained:
[1] = test system: cardiomyocyte cell line HL-1; assay: Proliferation of cardiomyocyte cell line HL-1, BrdU-ELISA; format: cell-based; conditions: same concentrations as on HCFs, 24 h, DMSO control
Procedure: (§1) HCFs and HL-1 cells were treated with Bufalin, Gitoxigenin, Lycorine and Anisomycin for 24 h with the same concentrations as indicated in Example 1 and proliferation of HCFs and cardiomyocyte cell line HL-1 cells was measured by BrdU-ELISA, DMSO refers as a control (see FIG. 2B, 3B, 4B, 5B). The cell proliferation ELISA is a colorimetric alternative to quantitate cell proliferation based on the measurement of BrdU incorporation during DNA synthesis in proliferating cells. After its incorporation into DNA, BrdU is detected by immunoassay by using antibodies being highly specific for BrdU. First, HCFs and/or HL-1 cells are cultured together with various dilutions of test substances (e.g. mitogens, growth factors, cytokines and test compounds such as Bufalin, Gitoxigenin, Lycorine and Anisomycin as mentioned above etc.) in a 96-well in a final volume of 100 μl/well in a humified atmosphere of 37° C. Afterwards, 10 μl/well BrdU labeling solution is added to the cells being cultured in 100 μl/well (final concentration: 10 μM BrdU). Then, cells were re-incubated for additional 2 to 24 h at 37° C. Next, labeling solution is removed and 200 μl/well FixDenat is added to the cells and incubated for 30 min at 15 to 25° C. Then, 100 μl/well anti-BrdU-POD working solution is added and incubated for approximately 90 min, after FixDenat is removed. Next, antibody conjugate is removed and wells are washed with 200 μl-300 μl/well Washing solution (PBS, 1×). After the washing solution is removed, 100 μl/well Substrate solution is added and it is incubated again until color development is sufficient for photometric detection. Further, HCFs were treated with said compounds (Lycorine: 5 μM, Bufalin: 1 μM, Gitoxigenin: 1 μM and Anisomycin: 1 μM) for 24 h as indicated again and subjected to FACS analysis after Annexin-7AAD-staining (see FIG. 2C, 3C, 4C, 5C). After the treatment with said compounds, annexin-7AAD-staining starts with inducing apoptosis in HCFs by a desired method, known to the person skilled in the art, a negative control (w/o induction and staining) and a positive control (f. ex. 500 μM H2O2 or 3 μM Staurosporin) is also needed. Then, the medium with HCFs is transferred into a falcon, washed with PBS and trypsinized. Everything is centrifuged for 5 min at 300×g and then the supernatant is aspirated. The pellet is re-suspended in 200 μl Annexin Red/7AAD Working Solution (1:20, 5 μl Annexin Red/7AAD+195 μl 1× Assay Buffer) and transferred into an Easy Cap Eppendorf tube. After incubation of 15 min at 37° C., it is centrifuged at room temperature (RT) for 5 min at 300×g. […] Samples are now ready for acquisition on a flow cytometer (blue and red laser).

[2] = test system: primary HCFs; assay: Cell death in HCFs, FACS after Annexin-7AAD-staining; format: cell-based, human; conditions: Lycorine 5 μM, Bufalin, Gitoxigenin, Anisomycin 1 μM, 24 h
Procedure: as §1

[3] = test system: C57BL/6 mice with angiotensin II-induced diastolic heart failure; assay: Echocardiography in murine model of angiotensin II-induced cardiac fibrotic disease (two weeks); format: in vivo; conditions: i.p. every other day, Bufalin 0.5, Lycorine 4.5, Anisomycin 10, Gitoxigenin 0.01 mg/kg, day 14
Procedure: (§2) Diastolic heart failure (HF) was induced in C57BL/6 mice via implantation of angiotensin II filled minipumps. Male C57BL/6 mice 8-10 weeks old were used in the present invention being based on a C57BL/6N-background (Charles River, Germany).
(§3) For implantation of angiotension II filled minipumps, Angiotensin-II is applied by osmotic minipumps for two weeks (Alzet® [Modell 1001]). The recommended dose amounts for 1.5 or 3.0 mg/kg/per day. The minipumps are filled under sterile conditions with Angiotensin-II or with isotonic saline solution functioning as a control substance. Implantation takes place under intraperitoneal injection anaesthesia. […] Mice are then fixed on a pre-heated operating table and are provided with Bepanthen eye salve against drying out of the conjunctives. The operating field is located in the right caudal third of the back. It is shaved and desinfected with Braunol, afterwards it is coated with a 0.5% Lidocain-solution. After a period of one hour implantation can be started. The skin is cut through vertical to the back line, preferably the length is one centimeter. A pocket from the cutting line to cranial is subcutaneously formed. Herein, the minipumps are injected. Afterwards, the skin is then closed with a 5-0 Prolene string with interrupted sutures. Then, the closed wound is coated again with Braunol. For preventing hypothermia mice wake up in their cages, which are placed up to one-third on a terrarium-warming mat with regulated temperatures of 37°. Surgery amounts for 5 minutes/per animal.
(§4) Next, the natural compounds (Bufalin, Gitoxigenin, Lycorine, and Anisomycin) were injected intraperitoneally every other day during two consecutive weeks starting two days after the operation (see FIG. 6). DMSO was also injected into C57BL/6 mice with induced cardiac remodeling as a control. Cardiac function was assessed echocardiographically and fibrosis-development via collagen staining with picosirius-red in histological sections of the hearts (Example 4).
Diastolic HF was induced in C57BL/6 mice and the natural compounds were injected as indicated in Example 3. Fourteen days after the operation, cardiac function of the mice was assessed echocardiographically (n=9-15 per group) by treating the mice with said compounds (Bufalin: 0.5 mg/kg, Lycorine 4.5 mg/kg, Anisomycin: 10 mg/kg and Gitoxigenin: 0.01 mg/kg). A decrease of the Myocardial Performance Index (MPI) as well as a reduction of the isovolumetric relaxation time (IVRT) and an increase in E to A peak ratio (E/A) (the ratio of the early (E) to late (A) ventricular filling velocities as a marker of the function of the left ventricle of the heart) indicate improvement of both global (MPI) and diastolic (IVRT and E/A) function of the heart (see FIGS. 7 and 9).

[4] = test system: C57BL/6 mice with angiotensin II-induced diastolic heart failure; assay: Picrosirius-red collagen staining of heart sections, angiotensin II model (two weeks); format: in vivo; conditions: i.p. every other day, Bufalin 0.5, Lycorine 4.5, Anisomycin 10, Gitoxigenin 0.01 mg/kg, day 14
Procedure: as §2, §3, §4
Further, fourteen days after the operation, histological sections of the hearts were stained for collagen using picrosirius-red (n=3-5 per group) after treatment with said compounds (Bufalin: 0.5 mg/kg, Lycorine 4.5 mg/kg, Anisomycin: 10 mg/kg and Gitoxigenin: 0.01 mg/kg).

[5] = test system: circular RNA CDR1as; assay: CDR1as expression in HCFs, qRT-PCR; format: cell-based, human; conditions: Lycorine 5 μM, others 1 μM, 24 h, vs DMSO
Procedure: Expression levels of CDR1as are increased in primary HCFs upon treatment with Bufalin, Gitoxigenin, Lycorine, Anisomycin and Geldanamycin. HCFs were incubated for 24 h with Bufalin (1 μM), Gitoxigenin (1 μM,) Lycorine (5 μM), Anisomycin (1 μM) and Geldanamycin (1 μM) and upregulation of CDR1as (normalized to 18S rRNA) by the respective compound was validated via qRT-PCR (see FIG. 22).

Compound	proliferation of the cardiomyocyte cell line HL-1 [1]	cell death in primary HCFs (Annexin-7AAD-staining) [2]	E to A peak ratio (E/A) [3]	Myocardial Performance Index (MPI) [3]	isovolumetric relaxation time (IVRT) [3]	collagen deposition in heart sections (picrosirius-stained areas) [4]	expression levels of CDR1as (normalized to 18S rRNA) [5]
COc1ccc(C[C@H]2NC[C@H](O)[C@H]2OC(C)=O)cc1 [Anisomycin]	no impact	does not induce cell death	increase	decrease	reduction	prominent reduction of collagen deposition	increase
C[C@]12CC[C@H](O)C[C@H]1CC[C@@H]1[C@@H]2CC[C@]2(C)[C@@H](c3ccc(=O)oc3)CC[C@]12O [Bufalin]	no impact	does not induce cell death	increase	decrease	reduction	prominent reduction of collagen deposition	increase
C[C@]12CC[C@H](O)C[C@H]1CC[C@@H]1[C@@H]2CC[C@]2(C)[C@@H](C3=CC(=O)OC3)[C@@H](O)C[C@]12O [Gitoxigenin]	no impact	does not induce cell death	increase	decrease	reduction	prominent reduction of collagen deposition	increase
O[C@H]1[C@H]2c3cc4c(cc3CN3CCC(=C[C@@H]1O)[C@H]23)OCO4 [Lycorine]	no impact	does not induce cell death	increase	decrease	reduction	prominent reduction of collagen deposition	increase
